Test results as given in patent US7846722B2 (priority 2001, dated 2010).

System: Neuro-2A cells
Format: cell-based, mouse
Details: not given
In the case of CC1=C(/C=C/C(C)=C/C=C/C(C)=C/C(=O)O)C(C)(C)CCC1 [all trans retinoic acid, All Trans-Retinoic acid], the “BoNT/A SNAP25197-cleavage product (uptake of BoNT/A) after differentiation reagent treatment” value is reported as “increase”.

Target: BoNT/A (Clostridium botulinum, UniProt P0DPI0)
Sequence (P0DPI0 whole entry, looked up): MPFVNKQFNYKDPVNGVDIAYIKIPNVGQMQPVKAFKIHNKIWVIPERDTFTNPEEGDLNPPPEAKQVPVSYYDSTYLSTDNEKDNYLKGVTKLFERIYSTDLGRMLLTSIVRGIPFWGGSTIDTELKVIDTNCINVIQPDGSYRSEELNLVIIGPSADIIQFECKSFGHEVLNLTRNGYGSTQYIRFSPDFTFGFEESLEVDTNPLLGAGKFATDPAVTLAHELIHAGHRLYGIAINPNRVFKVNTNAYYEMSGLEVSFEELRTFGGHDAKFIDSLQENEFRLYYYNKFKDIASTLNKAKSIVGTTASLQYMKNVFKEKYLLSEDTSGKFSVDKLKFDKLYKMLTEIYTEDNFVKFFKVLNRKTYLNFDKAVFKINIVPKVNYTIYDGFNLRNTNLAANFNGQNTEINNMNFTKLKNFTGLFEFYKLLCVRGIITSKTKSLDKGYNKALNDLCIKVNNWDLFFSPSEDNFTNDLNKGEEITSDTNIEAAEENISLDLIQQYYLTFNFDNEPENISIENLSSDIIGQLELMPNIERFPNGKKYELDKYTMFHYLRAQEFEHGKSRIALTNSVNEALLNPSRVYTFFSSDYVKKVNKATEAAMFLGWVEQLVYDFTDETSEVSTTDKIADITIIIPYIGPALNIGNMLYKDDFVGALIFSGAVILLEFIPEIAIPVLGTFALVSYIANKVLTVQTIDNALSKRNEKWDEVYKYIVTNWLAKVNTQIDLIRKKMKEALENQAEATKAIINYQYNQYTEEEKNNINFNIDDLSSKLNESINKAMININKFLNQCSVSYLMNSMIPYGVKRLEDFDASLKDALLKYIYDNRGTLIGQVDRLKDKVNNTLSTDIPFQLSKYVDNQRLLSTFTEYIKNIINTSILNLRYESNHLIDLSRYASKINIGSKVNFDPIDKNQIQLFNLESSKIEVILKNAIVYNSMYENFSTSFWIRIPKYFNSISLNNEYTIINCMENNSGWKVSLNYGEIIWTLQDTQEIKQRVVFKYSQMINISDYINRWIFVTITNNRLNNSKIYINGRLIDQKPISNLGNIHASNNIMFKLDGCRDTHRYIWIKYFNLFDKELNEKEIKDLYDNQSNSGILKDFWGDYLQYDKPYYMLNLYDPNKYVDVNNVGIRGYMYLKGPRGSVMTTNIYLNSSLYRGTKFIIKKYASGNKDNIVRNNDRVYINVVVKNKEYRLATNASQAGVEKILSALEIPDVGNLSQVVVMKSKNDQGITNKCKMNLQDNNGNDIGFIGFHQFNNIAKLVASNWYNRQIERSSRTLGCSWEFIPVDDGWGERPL
Details: cited from earlier work
For SNKTRIDEANQRABKML [Peptide T14B], the “Relative Rate” value is given as 1.20.
In the case of SNKTRIDEANQRATKXL [Peptide M16X], the “Relative Rate” value is given as 1.20.
In the case of SNKTRIDEBNQRATKML [Peptide A9B], the “Relative Rate” value is given as 0.38.
For SNKTRIDEANQRBTKML [Peptide A13B], the “Relative Rate” value is given as 0.79.
In the case of SNKTRIDEANQRATKML [[1-17]], the “Relative Rate” value is given as 1.00.
In the case of SNKTRIDEANBRATKML [Peptide Q11B], the “Relative Rate” value is listed as 0.25.
